Results as given in US8168617B2, “Complex pantoic acid ester neopentyl sulfonyl ester cyclization release prodrugs of acamprosate, compositions thereof, and methods of use” (XenoPort, Inc., priority 2007, dated 2012).

Tests used:
[1] = rat, in vivo
Protocol: Rats were obtained commercially and were pre-cannulated in the jugular vein. Animals were conscious at the time of the experiment. All animals were fasted overnight and until 4 hours post-dosing of a prodrug of Formula (I).
Rat blood samples (0.3 mL/sample) were collected from all animals prior to dosing and at different time-points up to 24 h post-dose into tubes containing EDTA. Two aliquots (100 μL each) were quenched with 300 μL methanol and stored at −20° C. prior to analysis.
To prepare analysis standards, 90 μL of rat blood was quenched with 300 μL methanol followed by 10 μL of spiking standard and/or 20 μL of internal standard. The sample tubes were vortexed for at least 2 min and then centrifuged at 3400 rpm for 20 min. […]
LC-MS-MS analysis was performed using an API 4000 equipped with Agilent 1100 HPLC and a Leap Technologies autosampler. […] Acamprosate was monitored in negative ion mode. […] Prodrug was monitored in positive ion mode. […]
The percent relative bioavailability (F %) of acamprosate was determined by comparing the area under the acamprosate concentration vs time curve (AUC) following oral or colonic administration of an acamprosate prodrug or acamprosate with the AUC of the acamprosate concentration vs time curve following intravenous administration of acamprosate on a dose normalized basis.

[2] = post-dose; doses about 1-2 gm per day; cited from earlier work
cocaine conditioned mice = conditions: 100 mg/kg acamprosate for 3 days; cited from earlier work

acamprosate colonic bioavailability relative to the acamprosate colonic bioavailability of an equivalent dose of acamprosate itself [1]	acamprosate oral bioavailability relative to the acamprosate oral bioavailability of an equivalent dose of acamprosate itself [1]	SMILES	time at which steady-state plasma concentration occurs [2]	relapse-like behavior (cocaine conditioned mice)
at least 5 times	at least 5 times	CC(=O)NCCCS(=O)(=O)OCC(C)(C)[C@@H](O)C(=O)OC(C)OC(=O)OC(C)C (stereo partly drawn) [Compound 40, (Methylethoxycarbonyloxy)ethyl (2R)-4-{[3-(acetylamino)propyl]sulfonyloxy}-2-hydroxy-3,3-dimethylbutanoate]		
		CC(=O)NCCCS(=O)(=O)O [acamprosate, 3-(Acetylamino)propylsulfonic acid]	3 to 8 h	attenuated relapse-like behavior
